Laboratory results as given in patent publication US20180258180A1, “COMBINATION THERAPY INVOLVING ANTIBODIES AGAINST CLAUDIN 18.2 FOR TREATMENT OF CANCER” (Ganymed Pharmaceuticals AG, priority 2012, published 2018).

How the values were obtained:
NUGC-4 xenografts = assay: Biodistribution of Dyelight 680-labeled antibodies in NUGC-4 xenografted nude mice; settings: negative control, NUGC-4 negative for CD20
[1] = test system: HEK293~CLDN18.2 transfectants; assay: Early treatment of HEK293~CLDN18.2 tumor xenografts; type: in vivo, nude mice; settings: isotype control, twice per week for 6 weeks
Text: Moreover, advanced tumor treatment experiments were initiated up to 9 days after tumor cell inoculation when tumors had reached volumes of about 60-120 mm^3.
Nude mice were subcutaneously inoculated with 1×10^7 HEK293˜CLDN18.2 transfectants. Treatment of 10 mice per group started 3 days after tumor inoculation. […] Not only time to death was prolonged, but 4 of 10 mice survived the entire observation period of 210 days.

KatoIII cells [2] = assay: Cell cycle analysis of KatoIII cells treated with cytostatic compounds; type: cell-based, human; settings: for cell cycle arrest phase: KatoIII cells pretreated for 4 days; for cell cycle phase in which cells are predominantly arrested/enriched: KatoIII cells, 96 hours
Protocol: (§1) KatoIII cells, a human gastric tumor cell line, was cultivated in RPMI 1640 medium (Invitrogen) containing 20% FCS (Perbio) and 2 mM Glutamax (Invitrogen) at 37° C. and 5% CO2, with or without cytostatic compounds. Epirubicin (Pfizer) was tested at a concentration of 10 or 100 ng/ml, 5-FU (Neofluor from NeoCorp AG) was tested at a concentration of 10 or 100 ng/ml, and oxaliplatin (Hospira) was tested at a concentration of 50 or 500 ng/ml. A combination of all 3 compounds (EOF; epirubicin 10 ng/ml, oxaliplatin 500 ng/ml, 5-FU 10 ng/ml) was also used. 8×10^5 KatoIII cells were cultivated for 96 hours without medium change or for 72 hours followed by 24 hours cultivation in standard medium to release cells from cell cycle arrest in a 6-well tissue culture plate at 37° C., 5% CO2. Cells were harvested with EDTA/trypsin, washed and analysed.
Cell cycle stages were determined based on measurement of cellular DNA content. This allows one to discriminate between cells in the G1-, S- or G2-phase of the cell cycle. In the S-phase DNA duplication occurs whereas in the G2-phase cells grow and prepare for mitosis. Cell cycle analysis was done using the CycleTEST PLUS DNA Reagent Kit from BD Biosciences following the manufacturer's protocol. Flow cytometry acquisition and analysis were performed by using BD FACS CantoII (BD Biosciences) and FlowJo (Tree Star) software.
(§2) KatoIII cells were pretreated for 4 days with Irinotecan or Docetaxel and analysed for CLDN18.2 expression and cell cycle arrest.

KatoIII cells [3] = assay: IMAB362 induced ADCC / viability of pretreated KatoIII cells (luciferase); type: cell-based, human; settings: KatoIII pretreated for 3 days; for level of viable cells compared to medium cultivated target cells: Irinotecan 1000 ng/ml, Docetaxel 5 ng/ml, Cisplatin 2000 ng/ml
Protocol: Peripheral blood mononuclear cells (PBMCs) including NK cells, monocytes, mononuclear cells or other effector cells from healthy human donors were purified by Ficoll Hypaque density centrifugation. Washed effector cells were seeded in X-Vivo medium. KatoII cells which express CLDN18.2 endogenously and are of gastric origin were used as target cells in this setting. Target cells stably expressed luciferase, lucifer yellow, which is oxidized by viable cells only.

claudin18.2 = claudin18.2 expression in pretreated KatoIII cells; type: cell-based, human; settings: KatoIII pretreated for 3 days; Irinotecan 1000 ng/ml, Docetaxel 5 ng/ml, Cisplatin 2000 ng/ml
KatoIII cells [4] = assay: Cell growth of KatoIII cells pretreated with Irinotecan or Docetaxel; type: cell-based, human; settings: KatoIII cells pretreated for 4 days
Text: as §2

CLDN18.2 = assay: Extracellular detection of CLDN18.2 on treated KatoIII cells by flow cytometry; type: cell-based, human; settings: 96 hours, FIG. 1
Protocol: as §1
As secondary reagent goat-anti-huIgG-APC from Dianova was used.

[5] = biological target: Claudin 18 splice variant 2 (CLDN18.2), human (human)
CLS103 = test system: CLS103
Protocol: (§3) Furthermore, human stomach cancer cells (NUGC-4-luciferase) and murine stomach cancer cells (CLS103-calcein stained) were pretreated with or w/o 5 μM ZA for 2 days. Human Vγ9Vδ2 T cells were MACS purified (day 14) and co-cultured with the cancer cells for 24 h. Cytotoxicity of Vγ9V52 T cells towards non-treated and ZA-treated target cells was determined by measuring remaining luciferase activity or calcein fluorescence; cf. FIG. 11b. Target cells (NUGC-4 and CLS103) were pretreated with or w/o 5 μM ZA for 2 days and subsequently incubated for 4 h with mitomycin c ([…]) to stop proliferation. MACS purified human 14d old resting Vγ9V62 T cells and ^3H-thymidine were added to the target cells and co-cultures were incubated for 48 h at 37° C. Proliferation was determined by measuring ^3H thymidine incorporation in the DNA using a MicroBeta scintillation counter. Proliferation of target cells not treated with ZA and w/o Vγ9Vδ2 T cells was set to 100%; cf. FIG. 11c.

NUGC-4 = type: cell-based, human
Protocol: as §3

Vγ9Vδ2 T cells = assay: Enrichment of Vγ9Vδ2 T cells co-cultured with monocytes ± ZA; type: cell-based, human; settings: co-culture 14 days, ±1 μM ZA
Protocol: The enrichment of Vγ9Vδ2 T cells in the co-cultures after 14 days was determined by multicolor FACS, whereas the expansion of the culture was considered in the calculation. The enrichment factor of Vγ9Vδ2 T cells cultured with monocytes in a 1:4 ratio was set to 100% for each experiment. […] This effect was clearly ZA-dependent; cf. FIG. 11a.

PBMCs = assay: Expansion of PBMC cultures with ZA/IL-2; type: cell-based, human; settings: 14 days, 300 U/ml IL-2
Protocol: PBMCs were harvested from healthy human donors and cultures were treated with a single dose of ZA. […] FIG. 8a. […] FIG. 8b. Increase in cell numbers was determined by counting living cells on day 6, 8, 11 and 14.

With “rituximab: Dyelight 680-labeled negative control antibody (NUGC-4 negative for CD20) [reference compound]” the “signal of labeled antibody in NUGC-4 engrafted mice” value (NUGC-4 xenografts) was “No signal is detected”.

With “infliximab: isotype control antibody [reference compound]” the “time within which all mice died” value [1] was 70 to 80 days.

With `CC(=O)O[C@@]12CO[C@@H]1C[C@H](O)[C@@]1(C)C(=O)[C@H](O)C3=C(C)[C@@H](OC(=O)[C@H](O)[C@@H](NC(=O)OC(C)(C)C)c4ccccc4)C[C@@](O)([C@@H](OC(=O)c4ccccc4)[C@H]21)C3(C)C` [Docetaxel, docetaxel] the “cell cycle arrest phase” value (KatoIII cells [2]) was “G2-phase”, the “potency of IMAB362 to induce ADCC after pretreatment of target cells” value (shortened to “potency of IMAB362 to induce ADCC”) (KatoIII cells [3]) was “augmented” and the “level of viable cells compared to medium cultivated target cells” value (KatoIII cells [3]) was “lower level of viable cells”. For the same compound, the “claudin18.2 expression compared to medium cultivated cells” value (claudin18.2) was “increased” and the cell growth (KatoIII cells [4]) was “dose dependent inhibition”.

For `COc1cccc2c1C(=O)c1c(O)c3c(c(O)c1C2=O)C[C@@](O)(C(=O)CO)C[C@@H]3O[C@H]1C[C@H](N)[C@@H](O)[C@H](C)O1` [Epirubicin], the “cell cycle phase in which cells are predominantly arrested/enriched” value (KatoIII cells [2]) was “G2-phase” and the CLDN18.2-expression (CLDN18.2) was “stabilize”.

For `O=C1[O][Pt]2([NH][C@@H]3CCCC[C@H]3[NH]2)[O]C1=O` [Oxaliplatin, [(1R,2R)-cyclohexane-1,2-diamine](ethanedioato-O,O′)platinum(II)], the “cell cycle phase in which cells are predominantly arrested/enriched” value (KatoIII cells [2]) was “G1- and G2-phases”.

Work on IMAB362 (antibody) yielded an EC50 (read off the curve), ADCC on KatoIII cells pretreated 3 days with Irinotecan (Irino imab362) [5] of 1 µg/mL and an EC50 (read off the curve), ADCC on medium-cultivated KatoIII cells (Med imab362) [5] of 2 µg/mL.

With `N.N.[Cl][Pt][Cl]` [Cisplatin, cis-diamminedichloroplatinum(II)] the “potency of IMAB362 to induce ADCC” value (KatoIII cells [3]) was “augmented”, the “level of viable cells compared to medium cultivated target cells” value (KatoIII cells [3]) was “lower level of viable cells” and the “claudin18.2 expression compared to medium cultivated cells” value (claudin18.2) was “increased”.

In the case of `O=c1[nH]cc(F)c(=O)[nH]1` [5-FU, 5-fluoro-1H-pyrimidine-2,4-dione], the “cell cycle phase in which cells are predominantly arrested/enriched” value (KatoIII cells [2]) is reported as “S-phase” and the CLDN18.2-expression (CLDN18.2) is reported as “stabilize”.

`CCc1c2c(nc3ccc(OC(=O)N4CCC(N5CCCCC5)CC4)cc13)-c1cc3c(c(=O)n1C2)COC(=O)[C@]3(O)CC` [Irinotecan, (S)-4,11-diethyl-3,4,12,14-tetrahydro-4-hydroxy-3,14-dioxo1H-pyrano[3′,4′:6,7]-indolizino[1,2-b]quinolin-9-yl-[1,4′bipiperidine]-1′-carboxylate] was tested, and the “cell cycle arrest phase” value (KatoIII cells [2]) was “S/G2-phase”, the “potency of IMAB362 to induce ADCC” value (KatoIII cells [3]) was “augmented” and the “level of viable cells compared to medium cultivated target cells” value (KatoIII cells [3]) was “lower level of viable cells”. For the same compound, the “claudin18.2 expression compared to medium cultivated cells” value (claudin18.2) was “increased” and the cell growth (KatoIII cells [4]) was “dose dependent inhibition”.

For `O=P(O)(O)C(O)(Cn1ccnc1)P(=O)(O)O` [ZA, [1-hydroxy-2-(1H-imidazol-1-yl)ethane-1,1-diyl]bis(phosphonic acid)], the “activation of Vγ9Vδ2 T cells (cytotoxicity and proliferation) by ZA-pulsed cancer cells” value (CLS103) was “failed to elicit these effects”, the “activation of Vγ9Vδ2 T cell cytotoxicity by ZA-pulsed cancer cells” value (NUGC-4) was 5-10 fold and the “activation of Vγ9Vδ2 T cell proliferation by ZA-pulsed cancer cells” value (NUGC-4; 5 μM ZA for 2 days, co-culture 48 h, 3H-thymidine) was 1.4-1.8 fold. For the same compound, the “enrichment of Vγ9Vδ2 T cells with increase of monocytes, ZA-dependent” value (Vγ9Vδ2 T cells) was “more than 10 fold” and the “expansion of cells in medium without ZA compared to with ZA (lower)” value (PBMCs) was “about 2 fold”.
